Experimental data from article PMC4765731 (Anticancer research, 2015).
Like-named read-outs stand apart in the source and are kept apart here.

Legend:
[1] = tested on: human lung (A549) cancer cell line; assay: Cell viability, crystal violet dye binding assay, A549; assay type: cell-based
A549 cells [2] = assay: ROS production, DCFDA dye; assay type: cell-based, human; details: 30 min
A549 cells [3] = assay: Mitochondrial membrane potential; assay type: cell-based, human; details: rhodamine-123
[4] = Homo sapiens, A549, 48 h, read-out: CC50 (cytotoxic concentration), A549, A549, 48 h exposure, crystal violet, mean ± SD
[5] = read-out: CC50 (cytotoxic concentration), A549, A549, 48 h exposure, crystal violet, mean ± SD

SMILES: CC(=O)Oc1ccc(-c2c(C)c3ccccc3oc2=O)cc1 [Compound 10, 4-(4-methyl-2-oxo-2H-chromen-3-yl)phenyl acetate]
- CC50 [1, 4]: > 100 µM

SMILES: CC(=O)O[C@@]12CO[C@@H]1C[C@H](O)[C@@]1(C)C(=O)[C@H](O)C3=C(C)[C@@H](OC(=O)[C@H](O)[C@@H](NC(=O)OC(C)(C)C)c4ccccc4)C[C@@](O)([C@@H](OC(=O)c4ccccc4)[C@H]21)C3(C)C [Docetaxel, reference compound]
- CC50 [1, 4]: 9.47 µM
- CC50 [1, 5]: 9.4 ± 0.07 µM

SMILES: CC(=O)Oc1ccc2cc(-c3ccc(S(C)(=O)=O)cc3)c(=O)oc2c1OC(C)=O [Compound 7, 8-(acetyloxy)-3-(4-methanesulfonylphenyl)-2-oxo-2H-chromen-7-yl acetate]
- ROS fluorescence intensity in comparison to untreated control (100%) (A549 cells [2]; A549, 10 μM): 107.1%
- ROS fluorescence intensity in comparison to untreated control (100%) (A549 cells [2]; A549, 25 μM): 129.0%
- ROS fluorescence intensity in comparison to untreated control (100%) (A549 cells [2]; A549, 50 μM): 136.6%
- ROS fluorescence intensity in comparison to untreated control (100%) (A549 cells [2]; A549, 75 μM): 146.0%
- ROS fluorescence intensity in comparison to untreated control (100%) (A549 cells [2]; A549, 100 μM): 231.2%
- fold decrease in potency compared to docetaxel (CC50, A549) ([1]; A549, 48 h, 7 vs docetaxel): 2.5 fold
- CC50 [1, 5]: 24.2 ± 0.7 µM
- MMP fluorescence intensity in comparison to untreated control (100%) (A549 cells [3]; A549, 10 μM): 96.4%
- MMP fluorescence intensity in comparison to untreated control (100%) (A549 cells [3]; A549, 25 μM): 94.8%
- MMP fluorescence intensity in comparison to untreated control (100%) (A549 cells [3]; A549, 50 μM): 93.4%
- MMP fluorescence intensity in comparison to untreated control (100%) (A549 cells [3]; A549, 75 μM): 92.9%
- MMP fluorescence intensity in comparison to untreated control (100%) (A549 cells [3]; A549, 100 μM): 81.7%

SMILES: CC(=O)Oc1ccc(-c2cc3ccc(OC(C)=O)c(OC(C)=O)c3oc2=O)cc1 [Compound 6, 8-(acetyloxy)-3-[4-(acetyloxy)phenyl]-2-oxo-2H-chromen-7-yl acetate]
- CC50 [1, 4]: 75.2 µM
- CC50 [1, 5]: 75.9 ± 0.65 µM

SMILES: Cc1c(-c2ccc(S(C)(=O)=O)cc2)c(=O)oc2ccccc12 [Compound 11, 3-(4-methanesulfonylphenyl)-4-methyl-2H-chromen-2-one]
- CC50 [1, 4]: > 100 µM

SMILES: CS(=O)(=O)c1ccc(-c2cc3ccccc3oc2=O)cc1 [Compound 9, 3-(4-methanesulfonylphenyl)-2H-chromen-2-one]
- CC50 [1, 4]: > 100 µM
